What all share (type): biochemical
One experiment has as its target p38α MAPK (Homo sapiens, UniProt Q16539). Nature of the experiment: Kinase screen: SAPK 2a/p38 assay. How it is done:
(§1) Generally, the same procedure was used for all assays. Since the total assay volume was 25.5 microliters, 0.5 microliters of inhibitors at 51× assay concentration were added to the plates before any other addition.
(§2) The basic procedure was to add 0.5 microliters inhibitor/control in DMSO to plate. Fifteen microliters of enzyme/substrate/buffer mix were added and incubated for 5 min. Ten microliters MgATP at the relevant concentration were added and incubated for 30 min. The assay was stopped by adding 5 microliters of 3% orthophosphoric acid. The assay was transferred to a p81 filter plate and read in a scintillation counter of 30 sec/well. Note that this assay procedure was not followed for MKK1, which instead involved a two-step assay, and PKC alpha, which required the addition of lipid vesicles.
SAPK 2a/p38 assay: SAPK 2a/p38 (5-20 mU diluted in 50 mM Tris pH 7.5, 0.1 mM EGTA, 0.1 mM Na3VO4, 0.1% b-mercaptoethanol, 1 mg/ml BSA) was assayed against MBP in a final volume of 25.5 μl containing 25 mM Tris pH 7.5, 0.1 mM EGTA, 0.33 mg/ml MBP, 10 mM magnesium acetate and 0.05 mM [33P-g-ATP] (50-1000 cpm/pmole) and incubated for 30 min at room temperature. Assays were stopped by addition of 5 μl of 0.5 M (3%) orthophosphoric acid and then harvested onto P81 Unifilter plates with a wash buffer of 50 mM orthophosphoric acid.

For a further experiment, the target named is RSK1 (Homo sapiens, UniProt Q15418). Briefly: Kinase screen: MAPKAP-K1a assay. How it is done: as §1, §2
MAPKAP-K1a assay: MAPKAP-K1a (5-20 mU diluted in 20 mM MOPS pH 7.5, 1 mM EDTA, 0.01% Brij35, 5% glycerol, 0.1% b-mercaptoethanol, 1 mg/ml BSA) was assayed against […] (SEQ ID NO: 3) in a final volume of 25.5 μl containing 50 mM Na-b-glycerophosphate pH 7.5, 0.5 mM EDTA, 30 μM substrate peptide, 10 mM magnesium acetate and 0.05 mM [33P-g-ATP] (50-1000 cpm/pmole) and incubated for 40 min at room temperature. Assays were stopped by addition of 5 μl of 0.5 M (3%) orthophosphoric acid and then harvested onto P81 Unifilter plates with a wash buffer of 50 mM orthophosphoric acid.

For the next experiment, the target named is PLK1 (Okadaic Acid) (Homo sapiens, UniProt P53350). Nature of the experiment: Kinase screen: PLK1 (Okadaic Acid) assay. How it is done: as §1, §2
(50-1000 cpm/pmole) and incubated for 30 min at room temperature. Assays were stopped by addition of 5 μl of 0.5 M (3%) orthophosphoric acid and then harvested onto P81 Unifilter plates with a wash buffer of 50 mM orthophosphoric acid.

For the next experiment, the target named is T1, IKKe (Homo sapiens, UniProt Q14164).
T1 construct: DU14231
T1 sequence (Q14164 1-716): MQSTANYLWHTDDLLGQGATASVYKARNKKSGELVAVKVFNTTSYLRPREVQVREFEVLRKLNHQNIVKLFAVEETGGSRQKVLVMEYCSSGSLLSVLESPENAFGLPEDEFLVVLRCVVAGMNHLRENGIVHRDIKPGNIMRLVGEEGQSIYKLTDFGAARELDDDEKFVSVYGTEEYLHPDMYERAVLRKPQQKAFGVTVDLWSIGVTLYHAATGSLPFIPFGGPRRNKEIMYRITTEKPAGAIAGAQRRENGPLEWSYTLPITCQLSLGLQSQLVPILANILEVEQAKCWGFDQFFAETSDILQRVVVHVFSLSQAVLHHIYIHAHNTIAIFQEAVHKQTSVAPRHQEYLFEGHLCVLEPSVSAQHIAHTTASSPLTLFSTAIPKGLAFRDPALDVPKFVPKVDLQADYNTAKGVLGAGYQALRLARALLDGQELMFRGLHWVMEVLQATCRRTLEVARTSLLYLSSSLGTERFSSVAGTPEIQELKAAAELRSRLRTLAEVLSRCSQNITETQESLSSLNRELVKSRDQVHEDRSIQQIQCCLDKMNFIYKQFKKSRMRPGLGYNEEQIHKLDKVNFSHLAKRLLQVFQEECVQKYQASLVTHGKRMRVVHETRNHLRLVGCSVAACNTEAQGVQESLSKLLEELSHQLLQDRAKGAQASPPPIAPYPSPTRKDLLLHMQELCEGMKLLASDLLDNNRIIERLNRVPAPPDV
Briefly: Kinase screen: IKKe / IKKepsilon (DU14231) assay. Conditions: 10 micromolar compound; for remaining activity at 10 µM: read-out: mean activity remaining (as a percentage of the original activity), IKKe. How it is done: as §1, §2
IKKe assay: 5-20 mU of IKKe (diluted in 50 mM Tris (pH 7.5), 0.1 mM EGTA, 1 mg/ml BSA) was assayed against MBP in a final volume of 25.5 μl containing 50 mM Tris (pH 7.5), 0.1 mM EGTA, 0.33 mg/ml MBP, 10 mM magnesium acetate and 0.05 mM [33P-g-ATP] (500-1000 cpm/pmole) and incubated for 30 mins at room temperature. Assays were stopped by addition of 5 μl of 0.5M (3%) orthophosphoric acid. Assays were harvested onto P81 Unifilter plates using a wash buffer of 50 mM orthophosphoric acid.
IKKepsilon (DU14231) assay: 5-20 mU of IKKepsilon (DU14231)(diluted in 50 mM Tris (pH 7.5), 0.1 mM EGTA, 1 mg/ml BSA) was assayed against MBP in a final volume of 25.5 μl containing 50 mM Tris (pH 7.5), 0.1 mM EGTA, 0.33 mg/ml MBP, 10 mM magnesium acetate and 0.05 mM [33P-g-ATP] (500-1000 cpm/pmole) and incubated for 30 mins at room temperature. Assays were stopped by addition of 5 μl of 0.5M (3%) orthophosphoric acid. Assays were harvested onto P81 Unifilter plates using a wash buffer of 50 mM orthophosphoric acid.

For a further experiment, the system named is VEG-FR. Briefly: Kinase screen: VEG-FR assay. Conditions: 10 micromolar compound. How it is done:
as §1, §2
VEG-FR assay: VEG-FR (5-20 mU diluted in 50 mM Tris pH 7.5, 0.1 mM EGTA, 1 mg/ml BSA) was assayed against a substrate peptide ([…]) (SEQ ID NO: 35) in a final volume of 25.5 μl containing 50 mM Tris pH 7.5, 300 μM substrate peptide, 10 mM magnesium acetate and 0.02 mM [33P-g-ATP] (50-1000 cpm/pmole) and incubated for 30 min at room temperature. Assays were stopped by addition of 5 μl of 0.5 M (3%) orthophosphoric acid and then harvested onto P81 Unifilter plates with a wash buffer of 50 mM orthophosphoric acid.

Where [1] appears, read: 10 micromolar compound, read-out: mean activity remaining (as a percentage of the original activity), p38a2 MAPK.
[2] abbreviates: 10 micromolar compound, read-out: mean activity remaining (as a percentage of the original activity), RSK1.
The mark [3] stands for this setting: 10 micromolar compound, read-out: mean activity remaining (as a percentage of the original activity), PLK 1 (Okadaic Acid).

Read-outs that look alike come from different tables or passages of the source.

PLK1 (Okadaic Acid), sequence (P53350 whole entry, species assumed): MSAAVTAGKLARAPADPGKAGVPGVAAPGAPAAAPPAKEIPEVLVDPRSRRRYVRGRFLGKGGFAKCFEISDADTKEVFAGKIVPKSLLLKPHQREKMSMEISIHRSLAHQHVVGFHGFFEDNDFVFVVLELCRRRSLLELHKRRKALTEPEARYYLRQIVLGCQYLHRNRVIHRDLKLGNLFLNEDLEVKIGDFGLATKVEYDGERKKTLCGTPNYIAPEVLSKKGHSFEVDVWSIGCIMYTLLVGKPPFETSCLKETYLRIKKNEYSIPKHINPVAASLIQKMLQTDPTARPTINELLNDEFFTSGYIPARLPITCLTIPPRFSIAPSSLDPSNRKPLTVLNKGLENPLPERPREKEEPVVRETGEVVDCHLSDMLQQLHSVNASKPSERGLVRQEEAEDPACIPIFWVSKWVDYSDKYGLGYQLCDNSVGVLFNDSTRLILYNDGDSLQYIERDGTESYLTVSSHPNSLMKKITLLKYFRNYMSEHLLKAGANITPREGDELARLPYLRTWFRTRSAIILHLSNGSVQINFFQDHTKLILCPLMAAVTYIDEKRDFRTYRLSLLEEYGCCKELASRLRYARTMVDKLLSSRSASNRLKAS
RSK1, sequence (Q15418 whole entry, species assumed): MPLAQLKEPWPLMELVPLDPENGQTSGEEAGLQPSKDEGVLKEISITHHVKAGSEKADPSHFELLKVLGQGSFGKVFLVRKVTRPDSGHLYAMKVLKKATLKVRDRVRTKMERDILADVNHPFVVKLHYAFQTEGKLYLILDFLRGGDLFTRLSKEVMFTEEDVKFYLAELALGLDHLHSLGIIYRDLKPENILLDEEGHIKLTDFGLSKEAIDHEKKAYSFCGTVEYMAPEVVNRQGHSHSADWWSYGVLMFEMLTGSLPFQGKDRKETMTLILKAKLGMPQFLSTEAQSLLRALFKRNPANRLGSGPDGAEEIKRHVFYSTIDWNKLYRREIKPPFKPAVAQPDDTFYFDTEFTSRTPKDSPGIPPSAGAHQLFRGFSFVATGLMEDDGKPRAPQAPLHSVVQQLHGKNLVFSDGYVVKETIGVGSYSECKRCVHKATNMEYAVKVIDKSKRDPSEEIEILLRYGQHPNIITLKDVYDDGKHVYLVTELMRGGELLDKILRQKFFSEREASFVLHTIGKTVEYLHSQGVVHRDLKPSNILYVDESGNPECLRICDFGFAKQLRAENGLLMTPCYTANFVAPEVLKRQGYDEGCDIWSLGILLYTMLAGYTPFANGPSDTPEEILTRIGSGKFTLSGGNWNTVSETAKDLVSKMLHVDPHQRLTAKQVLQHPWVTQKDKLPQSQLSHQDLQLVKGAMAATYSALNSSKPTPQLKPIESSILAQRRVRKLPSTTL
p38α MAPK, sequence (Q16539 whole entry): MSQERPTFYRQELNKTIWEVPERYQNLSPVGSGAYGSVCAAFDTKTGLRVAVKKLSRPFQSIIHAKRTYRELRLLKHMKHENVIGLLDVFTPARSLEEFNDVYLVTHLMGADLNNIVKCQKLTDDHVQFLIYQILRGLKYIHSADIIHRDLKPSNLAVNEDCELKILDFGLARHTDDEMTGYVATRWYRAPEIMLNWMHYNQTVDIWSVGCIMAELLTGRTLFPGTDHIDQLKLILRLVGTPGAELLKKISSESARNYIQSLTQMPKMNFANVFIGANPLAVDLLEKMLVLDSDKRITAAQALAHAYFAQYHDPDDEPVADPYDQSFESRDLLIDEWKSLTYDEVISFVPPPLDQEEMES

On to `CC(C)c1cnn2c(NCc3ccccc3F)cc(NCCCCCN)nc12` [ICEC-0232], for which, on p38α MAPK (10 micromolar compound), the “mean activity remaining (as a percentage of the original activity), p38a2 MAPK” value was found to be 86%. For the same molecule, the “mean activity remaining (as a percentage of the original activity), RSK1” value at RSK1 (10 micromolar compound) is 24%. At PLK1 (Okadaic Acid) (10 micromolar compound), the “mean activity remaining (as a percentage of the original activity), PLK 1 (Okadaic Acid)” value stood at 125%. In addition, the “mean activity remaining (as a percentage of the original activity), IKKe” value at IKKe amounted to 92%. Besides, in the experiment with VEG-FR, the “mean activity remaining (as a percentage of the original activity), VEG-FR” value was found to be 105%.
For `CC[C@H](CO)Nc1cc(NCc2ccccc2)n2ncc(C(C)C)c2n1` [ICEC0067], the remaining activity – broadly, the signal under treatment as a percentage of the control signal – at 10 µM turned out to be 99% on p38α MAPK (setting [1]), 62% at RSK1 (setting [2]), 93% on PLK1 (Okadaic Acid) (setting [3]) and 103% on IKKe. Moreover, in the experiment with VEG-FR, the “mean activity remaining (as a percentage of the original activity), VEG-FR” value is reported as 99%.
`CC(C)c1cnn2c(NCc3ccccc3)cc(NCCCCCCCN)nc12` [BS-181]: the remaining activity at 10 µM is 95% at p38α MAPK (p38α MAPK, 10 μM, read-out: Mean Remaining Enzyme Activity (%)); 67% on RSK1 (RSK1, 10 μM, read-out: Mean Remaining Enzyme Activity (%)); 108% at PLK1 (Okadaic Acid) (PLK1 (Okadaic Acid), 10 μM, read-out: Mean Remaining Enzyme Activity (%)).
Regarding `C=C[C@H](CO)Nc1cc(NCc2ccccc2)n2ncc(C(C)C)c2n1` [ICEC0065], the remaining activity at 10 µM on p38α MAPK (setting [1]) is 94%; on RSK1 (setting [2]), 79%; on PLK1 (Okadaic Acid) (setting [3]) it was 104%; at IKKe, 101%. In the experiment on VEG-FR, the “mean activity remaining (as a percentage of the original activity), VEG-FR” value is reported as 101%.
Consider `CC(C)c1cnn2c(NCc3ccccc3)cc(N[C@@H](CO)[C@H](O)CO)nc12` [ICEC0318, (3S)-3-(7-(Benzylamino)-3-isopropylpyrazolo[1,5-a]pyrimidin-5-ylamino)butane-1,2,4-triol], for which the remaining activity at 10 µM at p38α MAPK (setting [1]) worked out at 98%; at RSK1 (setting [2]), 75%; on PLK1 (Okadaic Acid) (setting [3]), 97%; on IKKe, 94%. Besides, the “mean activity remaining (as a percentage of the original activity), VEG-FR” value in the experiment on VEG-FR is listed as 92%.

(Values after patent US8067424B2, “Selective inhibitors for cyclin-dependent kinases” (Emory University, priority 2007, dated 2011).)
